Molecular target: T1, SsOGT-MC^8 (Saccharolobus solfataricus, UniProt Q97VW7, G105N/G130P/K110E/M106T/R102A/S100A/S109D/S132L)
T1 construct: gene ogt; TSCLIP; synthetic gene with eight substitutions, Y90 kept; His6-tag, pHTP1, E. coli BL21 Rosetta2 (DE3), Ni-NTA purified; 8AES holds no ligand
T1 sequence (Q97VW7 1-151 S100A/R102A/G105N/M106T/S109D/K110E/G130P/S132L): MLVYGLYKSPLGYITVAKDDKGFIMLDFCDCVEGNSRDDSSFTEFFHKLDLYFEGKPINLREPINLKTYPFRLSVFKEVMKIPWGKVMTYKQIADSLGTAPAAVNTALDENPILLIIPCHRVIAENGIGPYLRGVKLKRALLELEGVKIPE
Experiment: competitive labelling with BC-TMR, SDS-PAGE fluorescence gel imaging
Format: biochemical
Description: competitive labelling with BC-TMR, SDS-PAGE fluorescence gel imaging on SsOGT-MC^8

Q: Which IC50 does the source give for `[N-]=[N+]=NCCCCCC(=O)NCc1ccc(COc2nccc(N)n2)cc1` [BC-2] here?
A: 128 ± 31.1 µM

Reference: publication PMC9519396, “First thermostable CLIP-tag by rational design applied to an archaeal O^6-alkyl-guanine-DNA-alkyl-transferase” (Computational and Structural Biotechnology Journal, 2022)
